{"source": "ChEMBL document CHEMBL5137013", "about": "(Eur J Med Chem, 2022)", "key": {"[1]": {"tested_on": "HUVEC", "test": "Antiangiogenic activity in HUVEC assessed as inhibition of tube formation at 12.5 to 50 nM incubated for 24 hrs by matrigel assay", "format": "functional, cell-based", "conditions": "Homo sapiens, dose 12.5-50 nM"}, "[2]": {"test": "Tmax in Sprague-Dawley rat at 10 mg/kg, iv by HPLC-MS/MS analysis", "format": "ADME, organism-based", "conditions": "in vivo"}, "[3]": {"tested_on": "HT-29", "test": "Induction of apoptosis in human HT-29 cells assessed as increase in cleaved caspase-3 expression at 25 to 100 nM measured after 24 hrs by Western blot analysis", "format": "functional, cell-based", "conditions": "dose 25-100 nM"}, "[4]": {"tested_on": "HT-29", "test": "Induction of apoptosis in human HT-29 cells assessed as up regulation of Bcl-2 expression at 25 to 100 nM measured after 24 hrs by Western blot analysis", "format": "functional, cell-based", "conditions": "dose 25-100 nM"}, "[5]": {"tested_on": "HT-29", "test": "Induction of apoptosis in human HT-29 cells assessed as up regulation of Bax expression at 25 to 100 nM measured after 24 hrs by Western blot analysis", "format": "functional, cell-based", "conditions": "dose 25-100 nM"}, "[6]": {"test": "AUC in Sprague-Dawley rat at 10 mg/kg, iv by HPLC-MS/MS analysis", "format": "ADME, organism-based", "design": "dose 10 mg/kg, route iv", "conditions": "in vivo"}, "[7]": {"test": "Toxicity in human HT-29 cells xenografted BALB/c nude mouse assessed as effect on spleen at 5 to 10 mg/kg, ip administered as 2 days interval for 3 weeks and measured 3 weeks post-initial dosing by H and E staining based histopathological analysis", "format": "organism-based", "conditions": "in vivo, 504 h, dose 5-10 mg/kg"}, "[8]": {"tested_on": "A549", "test": "Cytotoxicity against human A549 cells assessed as reduction in cell viability measured after 24 hrs by MTT assay", "conditions": "A549, 24 h"}, "[9]": {"tested_on": "HT-29", "test": "Cell cycle arrest in human HT-29 cells assessed as increase in cell accumulation at G2/M phase measured after 24 hrs by propidium iodide staining based flow cytometry", "format": "functional", "conditions": "dose 12.5-100 nM, DDE = dose-dependent effect"}, "[10]": {"tested_on": "HT-29", "test": "Induction of apoptosis in human HT-29 cells assessed as down regulation of phosphorylated histone H3 expression at 25 to 100 nM measured after 24 hrs by Western blot analysis", "format": "functional, cell-based", "conditions": "dose 25-100 nM"}, "[11]": {"test": "Clearance in Sprague-Dawley rat at 10 mg/kg, iv by HPLC-MS/MS analysis", "format": "ADME, organism-based", "conditions": "in vivo"}, "[12]": {"test": "Cytotoxicity against human MCF7/TxR cells assessed as reduction in cell viability measured after 24 hrs by MTT assay", "format": "functional, cell-based"}, "[13]": {"tested_on": "HT-29", "test": "Induction of mitochondrial dysfunction in human HT-29 cells assessed as increase in green fluorescence intensity measured after 24 hrs by JC-1 staining based JC-1 dye based confocal laser scanning microscopy", "format": "functional, cell-based", "conditions": "dose 25-100 nM, DDE = dose-dependent effect"}, "[14]": {"tested_on": "HT-29", "test": "Induction of apoptosis in human HT-29 cells assessed as increase in PARP expression at 25 to 100 nM measured after 24 hrs by Western blot analysis", "format": "functional, cell-based", "conditions": "dose 25-100 nM"}, "[15]": {"molecular_target": "Tubulin (Homo sapiens) (UniProt P68371+Q9H4B7+P0DPH7+P68366+Q13509+Q71U36+P04350+Q3ZCM7+P07437+P68363+Q9BQE3+Q6PEY2+Q13885+Q9BVA1+Q9BUF5)", "test": "Displacement of [3H] colchicine from tubulin (unknown origin) at 2.5 uM measured after 2 hrs by scintillation counting analysis relative to control", "format": "protein-complex assay"}, "[16]": {"tested_on": "MDA-MB-231", "test": "Cytotoxicity against human MDA-MB-231 cells assessed as reduction in cell viability measured after 24 hrs by MTT assay", "format": "functional, cell-based", "conditions": "MDA-MB-231, 24 h"}, "[17]": {"test": "Toxicity in human HT-29 cells xenografted BALB/c nude mouse assessed as body weight loss at 5 to 10 mg/kg, ip administered as 2 days interval for 3 weeks and measured 3 times a week during compound dosing", "format": "organism-based", "conditions": "in vivo, 504 h, dose 5-10 mg/kg"}}, "note": "pIC50: −log10 of the molar value. Activity calls are given as the source filed them. The calls are words filed in the database; no cut-off is given here.", "data": [{"smiles": "COC(=O)c1cc2c(cc1Nc1cc(OC)c(OC)c(OC)c1)OCCO2", "values": [{"measurement": "inhibition", "setting": "[1]", "result": "Active"}, {"measurement": "Tmax", "setting": "[2]", "result": 8.4, "unit": "min"}, {"measurement": "Activity", "setting": "[3]", "result": "Active"}, {"measurement": "Activity", "setting": "[4]", "result": "Active"}, {"measurement": "Activity", "setting": "[5]", "result": "Active"}, {"measurement": "AUC", "setting": "[6]", "result": 5670, "unit": "µg/L.hr"}, {"measurement": "Activity", "setting": "[7]", "result": "Non-Toxic"}, {"measurement": "pIC50", "setting": "[8]", "result": 6.62}, {"measurement": "Activity", "setting": "[9]", "result": "Dde"}, {"measurement": "Activity", "setting": "[10]", "result": "Active"}, {"measurement": "CL", "setting": "[11]", "result": 29.3, "unit": "mL/min/kg"}, {"measurement": "pIC50", "setting": "[12]", "result": 6.74}, {"measurement": "Activity", "setting": "[13]", "result": "Dde"}, {"measurement": "Activity", "setting": "[14]", "result": "Active"}, {"measurement": "inhibition", "setting": "[15]", "result": 77.6, "unit": "%"}, {"measurement": "pIC50", "setting": "[16]", "result": 7.00}, {"measurement": "Activity", "setting": "[17]", "result": "Non-Toxic"}]}]}
